From US20160108005A1, “TREATMENT OR PREVENTION OF DEPRESSION USING MENTHOL AND/OR ICILIN” (NESTEC S.A., priority 2013, published 2016) come the findings set out here.

Molecules are shown by their SMILES.

Holding throughout (assay type): cell-based
For test [1], the system named is Lateral Amygdala glutamatergic neuron (in a mouse brain slice). As to the kind of experiment: whole cell, current clamp recordings, 2.5 s square pulse at high depolarization (approximately −30 mV). The following applies: for inactivation of the sodium fast channels / neuronal firing: square pulse of 2.5 s at high depolarization of membrane potential (approximately −30 mV), relative to control, FIG. 2. An excerpt:
(§1) A mouse brain slice was used to study the effects of Menthol, Linalool (another transient receptor potential M8 (TRPM8) channel agonist) and Icilin. The amygdaloid complex is located within the medial temporal lobe in neocortex and amygdala. The lateral and basolateral nuclei of the amygdaloid complex receive sensory information from cortical and thalamic structures, process the information, and then transmit the information, either directly or through the basal nucleus, to the central nucleus. For experimental analysis of neuronal activity, synaptic responses from the basolateral complex can be evoked electrically using electrodes, and the action potentials can be measured. […] A square pulse of 2.5 s was applied at high depolarization of membrane potential (approximately −30 mV).

Test [2] has the same test system. As to the kind of experiment: whole cell, current clamp recordings with increasing concentration of gabazine (spontaneous action potential bursts). The following applies: Menthol 250 μM applied extracellularly 10 minutes previous to and during increasing concentrations of gabazine; FIG. 5 compared to FIG. 3.
Excerpt: as §1, with “As shown, neurons spontaneously present action” for “A square pulse of 2.5 s was applied at high depolarization of membrane”, “bursts due to massive presynaptic discharges.” for “(approximately −30 mV).”

The subject of test [3] is neocortex. In words: action potential threshold in mouse brain slice recordings. From the text:
A mouse brain slice was used to study the effects of Menthol, Linalool (another transient receptor potential M8 (TRPM8) channel agonist) and Icilin. The amygdaloid complex is located within the medial temporal lobe in neocortex and amygdala. The lateral and basolateral nuclei of the amygdaloid complex receive sensory information from cortical and thalamic structures, process the information, and then transmit the information, either directly or through the basal nucleus, to the central nucleus. For experimental analysis of neuronal activity, synaptic responses from the basolateral complex can be evoked electrically using electrodes, and the action potentials can be measured.

As to `C=CC(C)(O)CCC=C(C)C` (stereo not shown) [Linalool], the “inactivation of the sodium fast channels / neuronal firing” value in test [1] is “inactivation of the sodium fast channels happens sooner relative to control”.

Consider `CC1CCC(C(C)C)C(O)C1` (stereo not shown) [Menthol], for which the “spontaneous action potential bursts” value in test [2] is reported as “complete absence or a strongly decreased presence of spontaneous bursts”. Besides, in test [3], the “amount of current required to trigger an action potential” value was “increase the amount of current required to trigger an action potential” and the “threshold to trigger an action potential” value is “increase the threshold to trigger an action potential”. Further, in test [1], the “action potentials at higher stimulation levels” value is on record as “abort action potentials at higher stimulation levels” and the “inactivation of the sodium fast channels / neuronal firing” value is on record as “inactivation of the sodium fast channels happens sooner relative to control”.

In the case of `O=C1NC(c2cccc([N+](=O)[O-])c2)=CCN1c1ccccc1O` [Icilin], in test [3], the “amount of current required to trigger an action potential” value is listed as “increase the amount of current required to trigger an action potential” and the “threshold to trigger an action potential” value is recorded as “increase the threshold to trigger an action potential”. For the same compound, in test [1], the “action potentials at higher stimulation levels” value is reported as “abort action potentials at higher stimulation levels” and the “inactivation of the sodium fast channels / neuronal firing” value is “inactivation of the sodium fast channels happens sooner relative to control”.
